± gives the expanded uncertainty stated by the source.
Assay: activity coefficient (dimensionless); of the first substance listed, at infinite dilution; xn = mol fraction of the nth substance listed
Conditions: Liquid, x1 = 0

Compound | activity coefficient (270.02 K) | activity coefficient (280 K) | activity coefficient (290 K) | activity coefficient (300 K) | activity coefficient (310 K) | activity coefficient (330 K) | activity coefficient (310.01 K) | activity coefficient (320 K) | activity coefficient (269.99 K) | other results
C=CC=C [1,3-butadiene] + CCC(O)CC | 3.03 ± 0.09 | 2.92 ± 0.09 | 2.75 ± 0.08 | 2.63 ± 0.08 |  |  |  |  |  | activity coefficient (259.98 K): 3.18 ± 0.1
C=CC=C [1,3-butadiene] + CCCC(C)O |  |  | 2.68 ± 0.08 |  | 2.47 ± 0.07 | 2.27 ± 0.07 |  |  |  | activity coefficient (249.94 K): 3.01 ± 0.09; activity coefficient (269.98 K): 2.89 ± 0.09
C=CC=C [1,3-butadiene] + CCCCCO |  |  | 2.5 ± 0.08 |  | 2.46 ± 0.07 | 2.33 ± 0.07 |  |  |  | activity coefficient (249.97 K): 2.5 ± 0.08; activity coefficient (270.01 K): 2.51 ± 0.08
C=CCC [1-butene] + CCC(O)CC | 3.16 ± 0.09 | 3.05 ± 0.09 | 2.96 ± 0.09 | 2.86 ± 0.09 |  | 2.49 ± 0.07 | 2.72 ± 0.08 | 2.61 ± 0.08 |  | activity coefficient (259.96 K): 3.27 ± 0.1
C=CCC [1-butene] + CCCC(C)O |  |  | 2.86 ± 0.09 |  | 2.69 ± 0.08 | 2.5 ± 0.08 |  |  | 3.03 ± 0.09 | activity coefficient (249.94 K): 3.04 ± 0.09
C=CCC [1-butene] + CCCCCO |  |  | 2.82 ± 0.08 |  | 2.78 ± 0.08 | 2.7 ± 0.08 |  |  | 2.87 ± 0.09 | activity coefficient (249.96 K): 2.88 ± 0.09
CC(C)C [2-methylpropane] + CCC(O)CC | 3.62 ± 0.11 | 3.53 ± 0.11 | 3.45 ± 0.1 | 3.35 ± 0.1 |  |  | 3.22 ± 0.1 | 3.09 ± 0.09 |  | activity coefficient (259.96 K): 3.66 ± 0.11; activity coefficient (330.01 K): 2.98 ± 0.09
CC(C)C [2-methylpropane] + CCCC(C)O |  |  | 3.49 ± 0.1 |  | 3.3 ± 0.1 | 3.1 ± 0.09 |  |  |  | activity coefficient (250.01 K): 3.66 ± 0.11; activity coefficient (269.96 K): 3.61 ± 0.11
CC(C)C [2-methylpropane] + CCCCCO |  |  | 3.56 ± 0.11 |  | 3.51 ± 0.11 | 3.4 ± 0.1 |  |  |  | activity coefficient (249.97 K): 3.65 ± 0.11; activity coefficient (270.01 K): 3.59 ± 0.11
C=C(C)C [2-methylpropene] + CCC(O)CC | 3.15 ± 0.09 | 3.04 ± 0.09 | 2.93 ± 0.09 | 2.82 ± 0.08 |  |  | 2.69 ± 0.08 | 2.56 ± 0.08 |  | activity coefficient (259.96 K): 3.25 ± 0.1; activity coefficient (330.01 K): 2.43 ± 0.07
C=C(C)C [2-methylpropene] + CCCC(C)O |  |  | 2.82 ± 0.08 |  | 2.63 ± 0.08 | 2.45 ± 0.07 |  |  |  | activity coefficient (249.94 K): 3.1 ± 0.09; activity coefficient (269.98 K): 2.99 ± 0.09
C=C(C)C [2-methylpropene] + CCCCCO |  |  | 2.82 ± 0.08 |  | 2.76 ± 0.08 | 2.63 ± 0.08 |  |  |  | activity coefficient (249.97 K): 2.86 ± 0.09; activity coefficient (270.01 K): 2.84 ± 0.09
C/C=C/C [(E)-2-butene] + CCC(O)CC | 3.06 ± 0.09 | 2.96 ± 0.09 | 2.88 ± 0.09 | 2.77 ± 0.08 |  |  | 2.67 ± 0.08 | 2.54 ± 0.08 |  | activity coefficient (259.96 K): 3.12 ± 0.09; activity coefficient (330.01 K): 2.5 ± 0.08
C/C=C/C [(E)-2-butene] + CCCC(C)O |  |  | 2.81 ± 0.08 |  | 2.65 ± 0.08 | 2.49 ± 0.07 |  |  | 2.91 ± 0.09 | activity coefficient (249.94 K): 2.9 ± 0.09
C/C=C/C [(E)-2-butene] + CCCCCO |  |  | 2.76 ± 0.08 |  | 2.76 ± 0.08 | 2.69 ± 0.08 |  |  | 2.8 ± 0.08 | activity coefficient (249.96 K): 2.8 ± 0.08
CCCC [butane] + CCC(O)CC | 3.4 ± 0.1 | 3.36 ± 0.1 | 3.26 ± 0.1 | 3.15 ± 0.09 |  |  | 3.04 ± 0.09 | 2.92 ± 0.09 |  | activity coefficient (259.98 K): 3.48 ± 0.1; activity coefficient (330.01 K): 2.79 ± 0.08
CCCC [butane] + CCCC(C)O |  |  | 3.24 ± 0.1 |  | 3.11 ± 0.09 | 2.94 ± 0.09 |  |  |  | activity coefficient (249.93 K): 3.4 ± 0.1; activity coefficient (269.96 K): 3.38 ± 0.1
CCCC [butane] + CCCCCO |  |  | 3.31 ± 0.1 |  | 3.27 ± 0.1 | 3.19 ± 0.1 |  |  |  | activity coefficient (249.97 K): 3.43 ± 0.1; activity coefficient (270.01 K): 3.33 ± 0.1
CCC [propane] + CCC(O)CC | 3.21 ± 0.1 | 3.14 ± 0.09 | 3.09 ± 0.09 | 3.01 ± 0.09 |  | 2.72 ± 0.08 | 2.9 ± 0.09 | 2.81 ± 0.08 |  | activity coefficient (259.96 K): 3.27 ± 0.1
CCC [propane] + CCCCCO |  |  | 3.08 ± 0.09 |  | 3.05 ± 0.09 | 3 ± 0.09 |  |  | 3.07 ± 0.09 | activity coefficient (249.96 K): 3.08 ± 0.09
C=CC [propene] + CCC(O)CC | 2.87 ± 0.09 | 2.82 ± 0.08 | 2.74 ± 0.08 | 2.63 ± 0.08 |  |  | 2.53 ± 0.08 | 2.42 ± 0.07 |  | activity coefficient (259.94 K): 2.97 ± 0.09; activity coefficient (330.01 K): 2.32 ± 0.07
C=CC [propene] + CCCC(C)O |  |  | 2.66 ± 0.08 |  | 2.53 ± 0.08 | 2.37 ± 0.07 |  |  | 2.77 ± 0.08 | activity coefficient (249.93 K): 2.79 ± 0.08
C=CC [propene] + CCCCCO |  |  | 2.6 ± 0.08 |  | 2.59 ± 0.08 | 2.51 ± 0.08 |  |  | 2.59 ± 0.08 | activity coefficient (249.96 K): 2.59 ± 0.08

From the NIST ThermoML archive (doi:10.1016/j.jct.2004.11.005)
